Data on 4 compounds can be found in patent publication US20040014678A1, “Prevention of beta-amyloid neurotoxicity by blockade of the ubiquitin-proteasome proteolytoc pathway” (priority 2003, published 2004).

In data set [1] the test system is ubiquitination of neuronal proteins. Description: Western blot of ubiquitinated neuronal proteins. Format: cell-based, rat. To be noted: for ubiquitinated proteins, agent alone: 72 h. How it is done:
Lactacystin alone (lane 3), by blocking proteasome activity, causes an accumulation of ubiquitinated protein, although to a lesser extent than β-amyloid.
(§1) Hemispheres were separated, and meninges were carefully removed.
Western blot analysis was performed as previously described (Favit et al., 1998) with the following modifications. Proteins were extracted from neuronal pellets in a PBS solution containing 1 mg/ml leupeptin, 1 mg/ml pepstatin, 1 mg/ml chymostatin, 1 mg/ml antipain, and 0.2 mM phenylmethylsulfonyl fluoride. (Vannucci et al. (1998)). The crude homogenate was balanced with sample buffer containing 0.5 M Tris-HCl (pH 6.8), 10% glycerol, 2% sodium dodecyl sulfate, and 0.5% 2-mercaptoethanol to a final volume of 20 μl with a total protein concentration of […]. Sodium dodecyl sulfate-polyacrylamide gel electrophoresis was carried out in a 4-20% acrylamide gradient gel 1.5 mm thick. (Novex, San Diego, Calif., U.S.A.). Twenty micrograms per lane of protein of the crude homogenate was electrophoresed and transferred overnight onto a nitrocellulose membrane (Schleicher & Schuell). The membrane was blocked in 1% bovine serum albumin in 95% Tris-buffered saline for 1 h. Immunodetection of ubiquitin was obtained by exposing the membrane to an anti-ubaiqtin polyclonal primary antibody at 1:1,000 dilution for 1 h. Blots were then incubated with an anti-mouse alkaline phosphatase-conjugated secondary antibody for 1 h. Finally, the nitrocellulose was stained with a solution containing 0.1 M Tris-HCl (pH 9.6), 0.001 M MgCl2, 1% nitro blue terrazolium (Pierce), and 1% 5-bromo-4chloro-3-indolyl phosphate toluidine salt (Pierce). All reactions were carried out at room temperature. At least three independent sets of experiments were conducted.
Blocking ubiquitination with Leu-Ala or inhibiting proteasome activity with lactacystin prevent β-amyloid-induced neurotoxicity. […] Therefore, the ability of β-amyloid to cause ubiquitination of neuronal proteins was tested. Neurons were incubated with β-amyloid for 72 h in the presence of 50 nM lactacystin or 2 mM Leu-Ala and harvested. […] As a consequence of this, the target proteins are not degraded by the proteasome.
In general terms: In western blotting, separated proteins are transferred to a membrane and probed.

In data set [2] the test system is rat cortical neurons. Description: Morphologic analysis of β-amyloid-induced cortical neuron damage (phase-contrast). To be noted: for neuronal viability, agent alone: without β-amyloid.
Protocol: FIGS. 1A, 1B, 1C and 1D provide morphologic analysis of β-amyloid-induced cortical neuron damage shown in representative phase-contrast images of cortical neurons at 13 days in vitro. Cells are treated for 5 days with vehicle (FIG. 1A), 50 nM lactacystin (FIG. 1B), 20 μM β-amyloid (FIG. 1C), or 20 μM β-amyloid+50 nM lactacystin (FIG. 1D).
(§2) Neurons were prepared from 17-day-old rat fetuses, according to a previously published protocol (Hampson et al. (1998)). In brief, the fetuses were decapitated, the brains were dissected and placed in phosphate-buffered saline (PBS) containing 4.5 g/L glucose. Hemispheres were separated, and meninges were carefully removed. Cortical tissues were freed from subcortical structures and cut into small fragments. Tissues were incubated with papain activated with cysteine for 10 min at 37° C. Papain was neutralized with a solution of ovomucoid and bovine serum albumin. Finally, tissues were mechanically dissociated until a single-cell suspension was obtained. Cells were plated in poly-D-lysine-coated 3.5-cm-diameter Petri dishes, 48-multiwell plates, or tissue culture flasks.
Data set [3] has as its system rat cortical neurons. Description: cells. Format: cell-based. Here is the method:
FIGS. 3A and 3B show inhibition of β-amyloid (β-am) neurotoxicity by lactacystin (lacta) and Leu-Ala. Cell viability is assessed using the MTT assay. The conversion of tetrazolium salts is measured using a spectrophotometer and expressed as absorbance in arbitrary units. […] Lacta inhibits the neurotoxic effect cause by β-am in a concentration-dependent manner (•[formula]•).
as §1
Neurons plated at a density of 0.4×10^6 in 48-multiwell plates were exposed for the appropriate times to the test agents. MTT reduction was used to measure mitochondrial activity as an index of cell viability. The reaction was started by adding 0.4 mg/ml MTT in a PBS solution to the neurons. After 16 h of incubation at 37° C., 100 μl of pure dimethyl sulfoxide is added to each well. After an additional 12 h of incubation, absorbance values at 570 nm were determined with an automatic microplate reader, using 630 nm as a reference wavelength. Experiments were done in 48-multiwell plates allowing eight samples for each experimental point. Experiments were repeated at least three times.

The test system of data set [4] is rat cortical neurons.
Protocol: Cells are treated with the agents indicated in the respective heading (e.g. LACTA for lactacystin) and then stained with fluorescein and propidium. […] Data are mean±SE (bars) values.
as §2
Viability of cortical neurons was assessed with a propidium iodide exclusion test and fluorescein diacetate incorporation assessment, according to a previously published protocol. (Favit et al. (1992)). Rat cortical neurons seeded on 3.5-cm-diameter dishes were treated, washed with PBS, and incubated with a PBS solution containing 36 μM fluroescein diacetate and 7 μM propidium iodide for 3 min at room temperature. Cell viability was assessed by counting 100 cells per microscope field (using a 20× lens) for the number of fluorescein-labeled neurons versus propidium-positive cells. Experiments were conducted in duplicate and repeated at least three times. Statistical validity was assessed by ANOVA followed by a post hoc test.

“Also recorded” adds a separate entry of the source. Residues, ends and D or L forms follow the SMILES beside them.

One may read the EC50 as the concentration needed to bring the measured effect to its halfway point. With `CC(=O)N[C@@H](CSC(=O)[C@]1([C@@H](O)C(C)C)NC(=O)[C@H](C)[C@@H]1O)C(=O)O` [lactacystin], the “ubiquitinated proteins, agent alone” value in data set [1] is “increases the presence of ubiquitinated protein”. Moreover, the β-amyloid-induced ubiquitination result in data set [1] (β-amyloid 72 h with 50 nM lactacystin) is recorded as “not affected”. In addition, the “β-amyloid-induced morphologic degeneration of neurons” value in data set [2] (50 nM lactacystin with 20 μM β-amyloid, 5 days) is “prevented β-amyloid-induced morphologic degeneration of neurons”. Also, in data set [2], the “neuronal viability, agent alone” value is “did not affect neuronal viability”. In data set [3] (50 nM lacta with β-am), the “cell damage caused by β-am” value is “clear reduction of the cell damage caused by β-am”. Moreover, the EC50 in data set [3] (Rattus norvegicus, Cortical neurone, in presence of β-amyloid, read-out: apparent EC50 for blocking β-amyloid toxicity) amounted to 30 nM. The “prevention of toxic effect of β-amyloid at the highest concentration tested” value in data set [3] (highest concentration tested) is “almost entirely prevents the toxic effect of β-amyloid”. Also, in data set [3] (in presence of β-amyloid), the “concentration at which the protective effect is already statistically significant” value came out at 25 nM and the “concentration at which the protective effect reaches an apparent plateau” value is reported as 500 nM. In addition, the β-amyloid-induced propidium staining entry in data set [4] (β-amyloid combined with 50 nM lactacystin) was “reversed to near control levels”.

As for “β-Amyloid 1-40 [β-amyloid fragment 1-40]”, the “ubiquitinated proteins, agent alone” value in data set [1] is “marked increase of ubiquitination of multiple proteins”. For the same compound, in data set [3], the “viable cells (MTT)” value is reported as “greatly decreases viable cells”. In data set [4], the fluorescein sequestration entry is recorded as “not able to sequester fluorescein”, the “number of viable cells (cell counts)” value was “significantly reduces the number of viable cells” and the propidium iodide staining result is on record as “clear staining with propidium iodide”.

On to `CC(C)C[C@H](N)C(=O)N[C@@H](C)C(=O)O` [Leu-Ala, leucine-alanine dipeptide] (H-Leu-Ala-OH), for which the “ubiquitinated proteins, agent alone” value in data set [1] is on record as “does not affect protein ubiquitination in control cells”. Besides, the β-amyloid-induced ubiquitination entry in data set [1] (β-amyloid 72 h with 2 mM Leu-Ala) is listed as “markedly reduced; also recorded: completely prevented”. In data set [2], the “neuronal viability, agent alone” value is given as “did not affect neuronal viability”. The “cell damage caused by β-am” value in data set [3] (2 mM Leu-Ala with β-am) is on record as “clear reduction of the cell damage caused by β-am”.

With `CC(C)C[C@H](NC(=O)[C@H](C)N)C(=O)O` [Ala-Leu] (H-Ala-Leu-OH), the “reduction of β-amyloid toxicity” value in data set [3] (reverse dipeptide, data not shown) is on record as “does not cause any reduction of β-amyloid toxicity”.
